Measured values reported in publication PMC5731860, “Novel allylated monocarbonyl analogs of curcumin induce mitotic arrest and apoptosis by reactive oxygen species-mediated endoplasmic reticulum stress and inhibition of STAT3” (Oncotarget, 2017).

Key:
SGC-7901 = assay: MTT assay, growth inhibition / cell viability; format: cell-based; settings: Homo sapiens, SGC-7901, 24 h, 20 μM, 24 h
Procedure: (§1) First, we investigated whether allylated MAC alter the viability or have cytotoxic effects on cells in culture. We have performed MTT tetrazolium reduction assay following exposure of cancer cells (gastric cancer, BGC823 and SGC-7901; colon cancer, HT-29, HCT-116 and SW-480) and normal gastric epithelial cells (GES-1) to all 20 allylated MAC at a concentration of 20 μM for 24 h. […] In addition, we also found notable solubility and stability profile of these compounds (Supplementary Figure 1).
(§2) Cells were plated at a density of 8 × 10^3 cells/well in 96-well plates and allowed to attach overnight. Stock solutions of allylated MAC and curcumin were prepared in DMSO and diluted in culture media to obtain appropriate concentration. Cells were treated for 24 h and 48 h, following which, 20 μL of 5 mg/ml MTT reagent was added. Purple formazan product was dissolved by the addition of 100 μL DMSO to each well. Absorbance was then monitored at 490 nm using a plate reader (Molecular Device Spectra MAX190, USA). Percentage of cytotoxicity was determined using the following formula: Growth inhibition (%) = (OD of control−OD of test/OD of control×100%).

BGC-823 = assay: MTT assay, growth inhibition / cell viability; format: cell-based; settings: Homo sapiens, BGC-823, 20 μM, 24 h
Procedure: as §1, §2

GES-1 = assay: MTT assay, growth inhibition in normal gastric epithelial cells; format: cell-based, human; settings: for inhibition at 20 µM: Homo sapiens, GES1, 24 h, normal gastric epithelial cells
Procedure: as §1, §2

HT-29 = assay: MTT assay, growth inhibition; format: cell-based; settings: Homo sapiens, HT-29, 24 h
Procedure: as §1, §2

SW-480 = assay: MTT assay, growth inhibition; format: cell-based, human; settings: for % Of growth inhibition SW-480: 20 μM, 24 h; for inhibition at 20 µM: Homo sapiens, SW480, 24 h
Procedure: as §1, §2

HCT-116 = assay: MTT assay, growth inhibition; format: cell-based, human; settings: for inhibition at 20 µM: Homo sapiens, HCT-116, 24 h; for % Of growth inhibition HCT-116: 20 μM, 24 h
Procedure: as §1, §2

## C=CCc1cc(/C=C2\CN(C3CC3)C/C(=C\c3c(OC)cc(OC)cc3OC)C2=O)ccc1O [CA18]
SGC-7901
  inhibition at 20 µM: 61.3 ± 4.02%
BGC-823
  inhibition at 20 µM: 57.96 ± 0.01%
GES-1
  inhibition at 20 µM: 57.8 ± 3.58%
HT-29
  inhibition at 20 µM: 63 ± 4.2%
SW-480
  % Of growth inhibition SW-480: 56.88 ± 3.82%
HCT-116
  inhibition at 20 µM: 74.8 ± 1.25%

## C=CCc1cc(/C=C2\CN(C3CC3)C/C(=C\c3ccc(N(C)C)cc3)C2=O)ccc1O [CA15]
SGC-7901
  inhibition at 20 µM: 50.5 ± 4.3%
BGC-823
  inhibition at 20 µM: 50.6 ± 2.49%
GES-1; 20 μM, 24 h
  inhibition of the normal epithelial cells (selective cytotoxicity in cancer cell lines), in words: minimal inhibition
GES-1
  inhibition at 20 µM: 23.8 ± 4.79%
HT-29
  inhibition at 20 µM: < 60%
SW-480
  inhibition at 20 µM: 36.3 ± 1.7%
HCT-116
  % Of growth inhibition HCT-116: 43.17 ± 8.26%
  inhibition at 20 µM: 55%

## C=CCc1cc(/C=C2\CN(C3CC3)C/C(=C\c3ccc(N4CCOCC4)cc3)C2=O)ccc1O [CA12]
SGC-7901
  inhibition at 20 µM: 52.5 ± 5.54%
BGC-823
  inhibition at 20 µM: 40.1 ± 4.65%
GES-1
  inhibition at 20 µM: 40 ± 3.29%
HT-29
  inhibition at 20 µM: < 60%
SW-480
  inhibition at 20 µM: 33.8 ± 1.98%
HCT-116
  % Of growth inhibition HCT-116: 70.99 ± 3.12%
  inhibition at 20 µM: 70%

## C=CCc1cc(/C=C2\CN(CCC)C/C(=C\c3ccc(O)c(CC=C)c3)C2=O)ccc1O [CA2]
SGC-7901
  inhibition at 20 µM: 79.8 ± 0.9%
BGC-823
  inhibition at 20 µM: 63 ± 8.7%
GES-1
  inhibition at 20 µM: 60.88 ± 0.41%
HT-29
  inhibition at 20 µM: 67 ± 6.79%
SW-480
  inhibition at 20 µM: 76 ± 6.31%
HCT-116
  inhibition at 20 µM: 60.6 ± 0.98%

## C=CCc1cc(/C=C2\COC/C(=C\c3ccc(O)c(CC=C)c3)C2=O)ccc1O [CA8]
SGC-7901
  inhibition at 20 µM: > 80%
BGC-823
  inhibition at 20 µM: 71.2 ± 1.07%
GES-1
  inhibition at 20 µM: 27 ± 3.4%
HT-29
  inhibition at 20 µM: 71.1 ± 2.6%
SW-480
  inhibition at 20 µM: 79.3 ± 4.37%
HCT-116
  % Of growth inhibition HCT-116: 38.83 ± 4.23%
  inhibition at 20 µM: 55%

## C=CCc1cc(/C=C2\CSC/C(=C\c3ccc(O)c(CC=C)c3)C2=O)ccc1O [CA9]
SGC-7901
  inhibition at 20 µM: > 80%
BGC-823
  inhibition at 20 µM: 69.3 ± 3.13%
GES-1
  inhibition at 20 µM: > 60%
HT-29
  inhibition at 20 µM: 75.7 ± 2.18%
SW-480
  inhibition at 20 µM: 78 ± 5.69%
HCT-116
  inhibition at 20 µM: 67.3 ± 5.03%

## C=CCc1cc(/C=C2\CCC/C(=C\c3ccc(O)c(CC=C)c3)C2=O)ccc1O [CA7]
SGC-7901
  inhibition at 20 µM: > 80%
BGC-823
  inhibition at 20 µM: 71.2 ± 3.07%
GES-1
  inhibition at 20 µM: > 60%
HT-29
  inhibition at 20 µM: 79.5 ± 4.1%
SW-480
  inhibition at 20 µM: 71.7 ± 1.15%
HCT-116
  inhibition at 20 µM: 67 ± 4.92%

## C=CCc1cc(/C=C2\CN(C3CC3)C/C(=C\c3cc(OC)c(OC)cc3OC)C2=O)ccc1O [CA16]
SGC-7901
  inhibition at 20 µM: 60 ± 7.35%
BGC-823
  inhibition at 20 µM: 60.7 ± 5.64%
GES-1
  inhibition at 20 µM: 41.3 ± 5.22%
HT-29
  inhibition at 20 µM: 68 ± 1.39%
SW-480
  % Of growth inhibition SW-480: 35.69 ± 5.91%
  inhibition at 20 µM: 33.8 to 57%
HCT-116
  inhibition at 20 µM: 60.1 ± 2.02%

## C=CCc1cc(/C=C2\CN(S(=O)(=O)c3ccccc3)C/C(=C\c3ccc(O)c(CC=C)c3)C2=O)ccc1O [CA5]
SGC-7901
  inhibition at 20 µM: > 80%
BGC-823
  inhibition at 20 µM: 63.3 ± 5.52%
GES-1
  inhibition at 20 µM: 63.8 ± 2.33%
HT-29
  inhibition at 20 µM: 71.2 ± 1.99%
SW-480
  inhibition at 20 µM: 77.1 ± 3.79%
HCT-116
  % Of growth inhibition HCT-116: 43.04 ± 4.24%
  inhibition at 20 µM: 55%
